Patent US12540120B2, “Herbicidal compounds” (SYNGENTA CROP PROTECTION AG, priority 2019, dated 2026)

Columns and labels:
Format in all cases: in vivo
Solanum nigrum (SOLNI) [1] = test: B5 Pre-Emergence Efficacy—Test 2; details: 250 g/ha, evaluated after 13 days
Method: (§1) B5 Pre-Emergence Efficacy—Test 2 Seeds of a variety of test species were sown in standard soil in pots: Solanum nigrum (SOLNI), Amaranthus retoflexus (AMARE), Setaria faberi (SETFA), Echinochloa crus-galli (ECHCG), Ipomoea hederacea (IPOHE), Lolium perenne (LOLPE). After cultivation for one day (pre-emergence) under controlled conditions in a glasshouse (at 24/16° C., day/night; 14 hours light; 65% humidity), the plants were sprayed with an aqueous spray solution derived from the formulation of the technical active ingredient in acetone/water (50:50) solution containing 0.5% Tween 20 (polyoxyethelyene sorbitan monolaurate, CAS RN 9005-64-5). Compounds are applied at 250 g/ha. The test plants were then grown in a glasshouse under controlled conditions (at 24/16° C., day/night; 14 hours light; 65% humidity) and watered twice daily. After 13 days, the test is evaluated for the percentage damage caused to the plant. The biological activities are assessed on a five point scale (5=80-100%; 4=60-79%; 3=40-59%; 2=20-39%; 1=0-19%). A blank value in the table is indicative that the compound was not tested on that species.

[2] = test system: Amaranthus retoflexus (AMARE); test: B5 Pre-Emergence Efficacy—Test 2; details: 250 g/ha, evaluated after 13 days
Method: as §1

[3] = test system: Ipomoea hederacea (IPOHE); test: B5 Pre-Emergence Efficacy—Test 2; parameters: key: 5-point scale: 5=80-100%, 4=60-79%, 3=40-59%, 2=20-39%, 1=0-19% damage; details: 250 g/ha, evaluated after 13 days
Method: as §1

[4] = test system: Echinochloa crus-galli (ECHCG); test: B5 Pre-Emergence Efficacy—Test 2; parameters: key: 5-point scale: 5=80-100%, 4=60-79%, 3=40-59%, 2=20-39%, 1=0-19% damage; details: 250 g/ha, evaluated after 13 days
Method: as §1

Setaria faberi (SETFA) [5] = test: B5 Pre-Emergence Efficacy—Test 2; parameters: key: 5-point scale: 5=80-100%, 4=60-79%, 3=40-59%, 2=20-39%, 1=0-19% damage; details: 250 g/ha, evaluated after 13 days
Method: as §1

Lolium perenne (LOLPE) [6] = test: B5 Pre-Emergence Efficacy—Test 2; parameters: key: 5-point scale: 5=80-100%, 4=60-79%, 3=40-59%, 2=20-39%, 1=0-19% damage; details: 250 g/ha, evaluated after 13 days
Method: as §1

[7] = test system: Ipomoea hederacea (IPOHE); test: B2 Post-Emergence Efficacy—Test 2; details: post-emergence application, 250 g/ha, evaluated after 13 days (Test 2)
Method: (§2) B2 Post-Emergence Efficacy—Test 2 Seeds of a variety of test species are sown in standard soil in pots:—Solanum nigrum (SOLNI), Amaranthus retoflexus (AMARE), Setaria faberi (SETFA), Echinochloa crus-galli (ECHCG), Ipomoea hederacea (IPOHE), Lolium perenne (LOLPE). After 8 days cultivation (post-emergence) under controlled conditions in a glasshouse (at 24/16° C., day/night; 14 hours light; 65% humidity), the plants are sprayed with an aqueous spray solution derived from the formulation of the technical active ingredient in acetone/water (50:50) solution containing 0.5% Tween 20 (polyoxyethylene sorbitan monolaurate, CAS RN 9005-64-5). Compounds are applied at 250 g/ha. The test plants are then grown in a glasshouse under controlled conditions in a glasshouse (at 24/16° C., day/night; 14 hours light; 65% humidity) and watered twice daily. After 13 days, the test is evaluated for the percentage damage caused to the plant. The biological activities are assessed on a five point scale (5=80-100%; 4=60-79%; 3=40-59%; 2=20-39%; 1=0-19%). A blank value in the table is indicative that the compound was not tested on that species.

[8] = test system: Echinochloa crus-galli (ECHCG); test: B2 Post-Emergence Efficacy—Test 2; details: post-emergence application, 250 g/ha, evaluated after 13 days (Test 2)
Method: as §2

Setaria faberi (SETFA) [9] = test: B2 Post-Emergence Efficacy—Test 2; details: post-emergence application, 250 g/ha, evaluated after 13 days (Test 2)
Method: as §2

Solanum nigrum (SOLNI) [10] = test: B2 Post-Emergence Efficacy—Test 2; details: post-emergence application, 250 g/ha, evaluated after 13 days (Test 2)
Method: as §2

Lolium perenne (LOLPE) [11] = test: B2 Post-Emergence Efficacy—Test 2; details: post-emergence application, 250 g/ha, evaluated after 13 days (Test 2)
Method: as §2

[12] = test system: Amaranthus retoflexus (AMARE); test: B2 Post-Emergence Efficacy—Test 2; details: post-emergence application, 250 g/ha, evaluated after 13 days (Test 2)
Method: as §2

| SMILES | Control of weed species after pre-emergence application, SOLNI (percentage damage, five point scale) (Solanum nigrum (SOLNI) [1]) | Control of weed species after pre-emergence application, AMARE (percentage damage, five point scale) [2] | Control of weed species after pre-emergence application, IPOHE (percentage damage, five point scale) [3] | Control of weed species after pre-emergence application, ECHCG (percentage damage, five point scale) [4] | Control of weed species after pre-emergence application, SETFA (percentage damage, five point scale) (Setaria faberi (SETFA) [5]) | Control of weed species after pre-emergence application, LOLPE (percentage damage, five point scale) (Lolium perenne (LOLPE) [6]) | percentage damage caused to the plant, five point scale, IPOHE [7] | percentage damage caused to the plant, five point scale, ECHCG [8] | percentage damage caused to the plant, five point scale, SETFA (Setaria faberi (SETFA) [9]) | percentage damage caused to the plant, five point scale, SOLNI (Solanum nigrum (SOLNI) [10]) | percentage damage caused to the plant, five point scale, LOLPE (Lolium perenne (LOLPE) [11]) | percentage damage caused to the plant, five point scale, AMARE [12] |
| --- | --- | --- | --- | --- | --- | --- | --- | --- | --- | --- | --- | --- |
| Cc1nn(C)c(=O)c(-c2c(F)ccc(Cl)c2CCc2cccc(C#N)c2)c1O [Compound A-1.030] | 5 (5=80-100%) | 5 (5=80-100%) | 0 | 5 (5=80-100%) | 5 (5=80-100%) | 4 (4=60-79%) | 5 (5=80-100%) | 4 (4=60-79%) | 4 (4=60-79%) | 5 (5=80-100%) | 5 (5=80-100%) | 4 (4=60-79%) |
| Cc1cc(CCc2c(Cl)ccc(F)c2-c2c(O)c(C)nn(C)c2=O)ccc1N [Compound A-1.031] | 2 (2=20-39%) | 3 (3=40-59%) | 1 (1=0-19%) | 2 (2=20-39%) | 1 (1=0-19%) | 1 (1=0-19%) | 4 (4=60-79%) | 4 (4=60-79%) | 4 (4=60-79%) | 5 (5=80-100%) | 4 (4=60-79%) | 5 (5=80-100%) |
| Cc1nn(C)c(=O)c(-c2c(F)ccc(Cl)c2CCc2ccc(S(C)(=O)=O)cc2)c1O [Compound A-1.032] | 5 (5=80-100%) | 5 (5=80-100%) | 2 (2=20-39%) | 5 (5=80-100%) | 5 (5=80-100%) | 5 (5=80-100%) | 5 (5=80-100%) | 5 (5=80-100%) | 5 (5=80-100%) | 5 (5=80-100%) | 5 (5=80-100%) | 5 (5=80-100%) |
| Cc1nn(C)c(=O)c(-c2c(F)ccc(Cl)c2CCc2ccc(N(C)C)cc2)c1O [Compound A-1.033] | 1 (1=0-19%) | 1 (1=0-19%) | 1 (1=0-19%) | 0 | 2 (2=20-39%) | 1 (1=0-19%) | 5 (5=80-100%) | 4 (4=60-79%) | 5 (5=80-100%) | 5 (5=80-100%) | 5 (5=80-100%) | 5 (5=80-100%) |
| CNc1ccc(CCc2c(Cl)ccc(F)c2-c2c(O)c(C)nn(C)c2=O)cc1 [Compound A-1.034] | 2 (2=20-39%) | 0 | 0 | 0 | 0 | 0 | 5 (5=80-100%) | 1 (1=0-19%) | 5 (5=80-100%) | 5 (5=80-100%) | 5 (5=80-100%) | 5 (5=80-100%) |
| Cc1nn(C)c(=O)c(-c2c(F)ccc(Cl)c2CCc2ccc(OC(C)(C)C)cc2)c1O [Compound A-1.035] | 3 (3=40-59%) | 4 (4=60-79%) | 1 (1=0-19%) | 1 (1=0-19%) | 3 (3=40-59%) | 3 (3=40-59%) | 4 (4=60-79%) | 4 (4=60-79%) | 4 (4=60-79%) | 5 (5=80-100%) | 4 (4=60-79%) | 4 (4=60-79%) |
| Cc1nn(C)c(=O)c(-c2c(F)ccc(Cl)c2CCc2ccc(O)cc2)c1O [Compound A-1.037] | 2 (2=20-39%) | 1 (1=0-19%) | 0 | 2 (2=20-39%) | 0 | 0 | 5 (5=80-100%) | 3 (3=40-59%) | 5 (5=80-100%) | 5 (5=80-100%) | 1 (1=0-19%) | 1 (1=0-19%) |
